How the values were obtained:
[1] = test system: HBV; test: Selectivity index (CC50 value/EC50 value); assay type: cell-based, Hepatitis B virus
Excerpt: Based on FDA guidance, in order to support clinical testing in humans, the assessment of acceptable risk-benefit has to be achieved by providing clear evidence of in vitro antiviral activity (EC50) and cytotoxicity (CC50). It is important to establish that an investigational product has antiviral activity at concentrations that can be achieved in vivo without inducing toxic effects to cells. Furthermore, in a cell culture model, apparent antiviral activity of an investigational product can be the result of host cell death after exposure to the product. The relative effectiveness of the compound in inhibiting viral replication compared to inducing cell death is defined as the selectivity index (CC50 value/EC50 value). It is desirable to have a high selectivity index giving maximum antiviral activity with minimal cell toxicity.
The relative effectiveness of the compound in inhibiting viral replication compared to inducing cell death is defined as the selectivity index (CC50 value/EC50 value). It is desirable to have a high selectivity index giving maximum antiviral activity with minimal cell toxicity.

[2] = test system: HBV; test: Anti-HBV activity in vitro in HepG2.2.15 cells (extracellular HBV DNA by qPCR); assay type: cell-based, Hepatitis B virus; conditions: Hepatitis B virus; HepG2.2.15 cells; in-house data; read-out: EC50
Outline: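 Supernatant HBV DNA was measured by qPCR after viral DNA extraction. Samples came from 5-day cultures of HepG2.2.15 cells, an HBV-genome-transfected HepG2 line, exposed to half-log compound dilutions in medium containing 0.5% DMSO.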

[3] = Lyophilisation solubility assay (Lysa); assay type: physicochemical; conditions: phosphate buffer, pH 6.5, aqueous buffer, thermodynamic from solid
Outline: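 Solubility in μg/mL is read by UV or HPLC-UV on filtrate, neat and diluted 1/10. Before filtration, the residue from evaporated 10 mM DMSO stock was taken up in pH 6.5 0.05 M phosphate buffer, then stirred 1 h, shaken 2 h and stood overnight, in duplicate.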

[4] = Metabolic stability study in human microsome; assay type: in vitro ADME
Outline: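 Depletion of 1 μM compound followed by LC-MS/MS over 0–30 min (0, 3, 6, 9, 15, 30 min) after methanol quench. Incubations at 37 °C, pH 7.4 phosphate buffer, 0.5 mg/mL microsomal protein, with NADPH (1 mM) or a regenerating system as cofactor; controls lacked cofactor.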

[5] = Cytotoxicity (CC50) in HepDE19 cells, CCK-8 cell viability; assay type: cell-based; conditions: human, HepDE19 cells; read-out: CC50
Excerpt: HepG2.2.15 and HepDE19 are stably-transfected cell lines containing the HBV genome. Both cell lines are derived from the hepatoblastoma cell line Hep G2 (American Type Culture Collection, ATCC® HB-8065™) by the published procedures described in references: MA Selles et al. Proc. Natl. Acad. Sci. USA 1987, 84, 1005-1009 and H Guo et al. Journal of Virology 2007, 81, 12472-12484, respectively. Both cell lines were maintained in Dulbecco's modified Eagle's medium (DMEM)-F12 medium supplemented with 10% fetal bovine serum, 100 U/mL penicillin, 100 μg/mL streptomycin, and 0.5 mg/mL of G418.
Five days after treatment, cell viability was measured by addition of 20 μL of CCK-8 reagent. Two hours after incubation at 37° C., the absorbance at wavelengths of 450 nm and 630 nm (OD450 and OD630) was recorded by a plate reader.

## CCOC(=O)C1=C(CN2CCOC[C@H]2C(=O)O)NC(c2nccs2)=N[C@H]1c1ccc(F)c(F)c1 [Example 42, (S)-4-[(S)-6-(3,4-Difluoro-phenyl)-5-ethoxycarbonyl-2-thiazol-2-yl-3,6-dihydro-pyrimidin-4-ylmethyl]-morpholine-3-carboxylic acid]
[1]
  Selectivity index (CC50/EC50): >10000
[2]
  EC50: 10 nM
[3]
  solubility thermodynamic: > 613 µg/mL
[4]
  Human Hepatic Clearance: 5.56 mL/min/kg
[5]
  CC50 at 5 days: > 100000 nM

## CCOC(=O)C1=C(CN2CCOC[C@H]2C(=O)O)NC(c2nccs2)=N[C@H]1c1cc(F)c(F)c(F)c1 [Example 43, (S)-4-[(S)-5-Ethoxycarbonyl-2-thiazol-2-yl-6-(3,4,5-trifluoro-phenyl)-3,6-dihydro-pyrimidin-4-ylmethyl]-morpholine-3-carboxylic acid]
[1]
  Selectivity index (CC50/EC50): >5556
[2]
  EC50: 18 nM
[3]
  solubility thermodynamic: > 606 µg/mL
[4]
  Human Hepatic Clearance: 1.2 mL/min/kg
[5]
  CC50 at 5 days: > 100000 nM

## CCOC(=O)C1=C(CN2CCOC[C@H]2C(=O)O)NC(c2nccs2)=N[C@H]1c1ccc(F)c(F)c1F [Example 44, (S)-4-[(R)-5-Ethoxycarbonyl-2-thiazol-2-yl-6-(2,3,4-trifluoro-phenyl)-3,6-dihydro-pyrimidin-4-ylmethyl]-morpholine-3-carboxylic acid]
[1]
  Selectivity index (CC50/EC50): 10748
[2]
  EC50: 4.6 nM
[3]
  solubility thermodynamic: > 626 µg/mL
[4]
  Human Hepatic Clearance: 4.46 mL/min/kg
[5]
  CC50 at 5 days: 49000 nM

## CCOC(=O)C1=C(CN2CCOC[C@H]2C(=O)O)NC(c2nccs2)=N[C@H]1c1ccc(Cl)c(Cl)c1 [Example 46, (S)-4-[(S)-6-(3,4-Dichloro-phenyl)-5-ethoxycarbonyl-2-thiazol-2-yl-3,6-dihydro-pyrimidin-4-ylmethyl]-morpholine-3-carboxylic acid]
[1]
  Selectivity index (CC50/EC50): 2212
[2]
  EC50: 16 nM
[3]
  solubility thermodynamic: > 655 µg/mL
[4]
  Human Hepatic Clearance: 0 mL/min/kg
[5]
  CC50 at 5 days: 36000 nM

## CCOC(=O)C1=C(CN2CCOC[C@H]2C(=O)O)NC(c2nccs2)=N[C@H]1c1ccc(Cl)cc1F [Example 49, (S)-4-[(R)-6-(4-Chloro-2-fluoro-phenyl)-5-ethoxycarbonyl-2-thiazol-2-yl-3,6-dihydro-pyrimidin-4-ylmethyl]-morpholine-3-carboxylic acid]
[1]
  Selectivity index (CC50/EC50): 8936
[2]
  EC50: 4.7 nM
[3]
  solubility thermodynamic: > 679 µg/mL
[4]
  Human Hepatic Clearance: 0 mL/min/kg
[5]
  CC50 at 5 days: 42000 nM

## CCOC(=O)C1=C(CN2CC(F)(F)C[C@H]2C(=O)O)NC(c2nccs2)=N[C@H]1c1cccc(F)c1F [Example 50, (R)-6-((S)-2-Carboxy-4,4-difluoro-pyrrolidin-1-ylmethyl)-4-(2,3-difluoro-phenyl)-2-thiazol-2-yl-1,4-dihydro-pyrimidine-5-carboxylic acid ethyl ester]
[1]
  Selectivity index (CC50/EC50): 1905
[2]
  EC50: 14 nM
[3]
  solubility thermodynamic: > 580 µg/mL
[4]
  Human Hepatic Clearance: 0 mL/min/kg
[5]
  CC50 at 5 days: 26000 nM

## CCOC(=O)C1=C(CN2CCOC[C@H]2C(=O)O)NC(c2nccs2)=N[C@H]1c1ccc(Br)c(F)c1 [Example 52, (S)-4-[(S)-6-(4-Bromo-3-fluoro-phenyl)-5-ethoxycarbonyl-2-thiazol-2-yl-3,6-dihydro-pyrimidin-4-ylmethyl]-morpholine-3-carboxylic acid]
[1]
  Selectivity index (CC50/EC50): 4693
[2]
  EC50: 3 nM
[3]
  solubility thermodynamic: > 665 µg/mL
[4]
  Human Hepatic Clearance: 4.03 mL/min/kg
[5]
  CC50 at 5 days: 14000 nM

## CCOC(=O)C1=C(CN2CCOC[C@H]2C(=O)O)NC(c2nccs2)=N[C@H]1c1cccc(F)c1 [Example 53, (S)-4-[(S)-5-Ethoxycarbonyl-6-(3-fluoro-phenyl)-2-thiazol-2-yl-3,6-dihydro-pyrimidin-4-ylmethyl]-morpholine-3-carboxylic acid]
[1]
  Selectivity index (CC50/EC50): 4769
[2]
  EC50: 14 nM
[3]
  solubility thermodynamic: > 621 µg/mL
[4]
  Human Hepatic Clearance: 0 mL/min/kg
[5]
  CC50 at 5 days: 69000 nM

## CCOC(=O)C1=C(CN2CCOC[C@H]2C(=O)O)NC(c2nccn2C)=N[C@H]1c1ccc(F)c(F)c1 [Example 57, (S)-4-[(S)-6-(3,4-Difluoro-phenyl)-5-ethoxycarbonyl-2-(1-methyl-1H-imidazol-2-yl)-3,6-dihydro-pyrimidin-4-ylmethyl]-morpholine-3-carboxylic acid]
[1]
  Selectivity index (CC50/EC50): 2384
[2]
  EC50: 15 nM
[3]
  solubility thermodynamic: > 613 µg/mL
[4]
  Human Hepatic Clearance: 0 mL/min/kg
[5]
  CC50 at 5 days: 35000 nM

## CCOC(=O)C1=C(CN2CC(F)(F)C[C@H]2C(=O)O)NC(c2nccs2)=N[C@H]1c1ccc(F)cc1F [Example 59, (R)-6-((S)-2-Carboxy-4,4-difluoro-pyrrolidin-1-ylmethyl)-4-(2,4-difluoro-phenyl)-2-thiazol-2-yl-1,4-dihydro-pyrimidine-5-carboxylic acid ethyl ester]
[1]
  Selectivity index (CC50/EC50): 3935
[2]
  EC50: 13 nM
[3]
  solubility thermodynamic: > 630 µg/mL
[4]
  Human Hepatic Clearance: 3.5 mL/min/kg
[5]
  CC50 at 5 days: 52000 nM

## CCOC(=O)C1=C(CN2CC(F)(F)C[C@H]2C(=O)O)NC(c2nccs2)=N[C@H]1c1cccc(F)c1Cl [Example 64, (R)-6-((S)-2-Carboxy-4,4-difluoro-pyrrolidin-1-ylmethyl)-4-(2-chloro-3-fluoro-phenyl)-2-thiazol-2-yl-1,4-dihydro-pyrimidine-5-carboxylic acid ethyl ester]
[1]
  Selectivity index (CC50/EC50): 15667
[2]
  EC50: 3 nM
[3]
  solubility thermodynamic: > 620 µg/mL
[4]
  Human Hepatic Clearance: 0 mL/min/kg
[5]
  CC50 at 5 days: 47000 nM

## COC(=O)C1=C(CN2CCOC[C@H]2C(=O)O)NC(c2ncoc2C)=N[C@H]1c1ccc(F)cc1Br [Example 65, (S)-4-[(R)-6-(2-Bromo-4-fluoro-phenyl)-5-methoxycarbonyl-2-(5-methyl-oxazol-4-yl)-3,6-dihydro-pyrimidin-4-ylmethyl]-morpholine-3-carboxylic acid]
[1]
  Selectivity index (CC50/EC50): >13157
[2]
  EC50: 7.6 nM
[3]
  solubility thermodynamic: > 678 µg/mL
[4]
  Human Hepatic Clearance: 1.67 mL/min/kg
[5]
  CC50 at 5 days: > 100000 nM

## CCOC(=O)C1=C(CN2CCOC[C@H]2C(=O)O)NC(c2ncoc2C)=N[C@H]1c1ccc(F)cc1Br [Example 69, (S)-4-[(R)-6-(2-Bromo-4-fluoro-phenyl)-5-ethoxycarbonyl-2-(5-methyl-oxazol-4-yl)-3,6-dihydro-pyrimidin-4-ylmethyl]-morpholine-3-carboxylic acid]
[1]
  Selectivity index (CC50/EC50): 9500
[2]
  EC50: 6 nM
[3]
  solubility thermodynamic: > 658 µg/mL
[4]
  Human Hepatic Clearance: 0 mL/min/kg
[5]
  CC50 at 5 days: 57000 nM

## CCOC(=O)C1=C(CN2CCOC[C@H]2C(=O)O)NC(c2nccs2)=N[C@H]1c1cccc(F)c1F [Example 70, (S)-4-[(R)-6-(2,3-Difluoro-phenyl)-5-ethoxycarbonyl-2-thiazol-2-yl-3,6-dihydro-pyrimidin-4-ylmethyl]-morpholine-3-carboxylic acid]
[1]
  Selectivity index (CC50/EC50): >11236
[2]
  EC50: 8.9 nM
[3]
  solubility thermodynamic: > 611 µg/mL
[4]
  Human Hepatic Clearance: 2.22 mL/min/kg
[5]
  CC50 at 5 days: > 100000 nM

Source: patent US9447086B2, “6-amino acid heteroaryldihydropyrimidines for the treatment and prophylaxis of hepatitis B virus infection” (priority 2012, dated 2016)
